The record followed here is patent US20230075856A1, “CYCLIC SULFAMIDE COMPOUNDS FOR TREATMENT OF HBV” (Assembly Biosciences, Inc., priority 2018, published 2023).

For orientation: EC50 means the concentration giving half of the maximal effect.

The first experiment has as its system HBV viral load production from HepAD38 cells. As to the kind of experiment: Viral production from HepAD38 cells: viral load in supernatant by qPCR of the HBV core sequence. It counts as cell-based. The settings on record: 5 days incubation, qPCR of supernatant HBV DNA vs DMSO control, read-out: viral load lowering EC50 (Activity). Summed up: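 Viral load was measured by qPCR of the HBV core region in supernatant, quantified against DNA standards and compared with DMSO wells. Cells (50,000/well, tetracycline withdrawn, 2% FBS) received compound from 10 μM final for 5 days; EC50 from four-parameter nonlinear regression.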
As for `C[C@@H](NC(=O)C1CC(C(=O)Nc2ccc(F)c(Cl)c2)N(C)S(=O)(=O)N1)c1ccccc1` (single isomer, unassigned) [Compound 719-ISOMER-B], the EC50 is 100 to 10000 nM.

Staying with this experiment, now noted: Hepatitis B virus, HePAD38, 120 h, 5 days incubation, qPCR of supernatant HBV DNA vs DMSO control, read-out: viral load lowering EC50 (Activity).
For the compound `COc1cccc(CNC(=O)C2CC(C(=O)Nc3ccc(F)c(C#N)c3)N(C)S(=O)(=O)N2)c1` (stereo not shown) [Compound 835], the EC50 was 50 to 100 nM. Same read-out and setting: the value for `CN1C(C(=O)Nc2ccc(F)c(Cl)c2)CC(C(=O)Nc2ccc3c(c2)OCCO3)NS1(=O)=O` (stereo not shown) [Compound 734] was 50 to 100 nM. The same measure, in the same setting: the value for `C[C@@H](NC(=O)C1CC(C(=O)Nc2ccc(F)c(Cl)c2)N(C)S(=O)(=O)N1)c1ccccc1` (stereo partly shown) [Compound 719] was less than 50 nM. The same measure, in the same setting: the value for `Cc1nc(-c2ccc(OCCN3CCCCC3)cc2)sc1CNC(=O)C1CC(C(=O)Nc2ccc(F)c(Cl)c2)N(C)S(=O)(=O)N1` (single isomer, unassigned) [1087-ISOMER-A, N3-(3-chloro-4-fluoro-phenyl)-2-methyl-N5-[[4-methyl-2-[4-[2-(1-piperidyl)ethoxy]phenyl]thiazol-5-yl]methyl]-1,1-dioxo-1,2,6-thiadiazinane-3,5-dicarboxamide] was less than 50 nM; that for `Cc1cn(-c2ccc(F)cc2)nc1CNC(=O)C1CC(C(=O)Nc2ccc(F)c(Cl)c2)N(C)S(=O)(=O)N1` (single isomer, unassigned) [1141-ISOMER-A, N3-(3-chloro-4-fluoro-phenyl)-N5-[[1-(4-fluorophenyl)-4-methyl-pyrazol-3-yl]methyl]-2-methyl-1,1-dioxo-1,2,6-thiadiazinane-3,5-dicarboxamide] was less than 50 nM; that for `Cc1c(CNC(=O)C2CC(C(=O)Nc3ccc(F)c(Cl)c3)N(C)S(=O)(=O)N2)cnn1C` (stereo not shown) [Compound 740] was less than 50 nM.

`CN1C(C(=O)Nc2ccc(F)c(Cl)c2)CC(C(=O)NCc2ccccc2)NS1(=O)=O` (stereo not shown) [Compound 718]: the EC50 is less than 50 nM. Still for that read-out and setting: the value for `CC(C)OC1CCC(NC(=O)C2CC(C(=O)Nc3ccc(F)c(Cl)c3)N(C)S(=O)(=O)N2)CC1` (stereo not shown) [Compound 862] was less than 50 nM; that for `Cc1ncc(CNC(=O)C2CC(C(=O)Nc3ccc(F)c(Cl)c3)N(C)S(=O)(=O)N2)s1` (single isomer, unassigned) [Compound 495-ISOMER-B, N3-(3-chloro-4-fluoro-phenyl)-2-methyl-N5-[(2-methylthiazol-5-yl)methyl]-1,1-dioxo-1,2,6-thiadiazinane-3,5-dicarboxamide] was less than 50 nM. `CN1CCC(Oc2ccc(-c3ncc(CNC(=O)C4CC(C(=O)Nc5ccc(F)c(Cl)c5)N(C)S(=O)(=O)N4)s3)cc2)CC1` (single isomer, unassigned) [Compound 979-ISOMER-A, N3-(3-chloro-4-fluoro-phenyl)-2-methyl-N5-[[2-[4-[(1-methyl-4-piperidyl)oxy]phenyl]thiazol-5-yl]methyl]-1,1-dioxo-1,2,6-thiadiazinane-3,5-dicarboxamide]: the half-maximal effective concentration (EC50) lay within 100 to 10000 nM. For `Cc1cn(-c2ccccc2)nc1CNC(=O)C1CC(C(=O)Nc2ccnc(Cl)c2)N(C)S(=O)(=O)N1` (stereo not shown) [Compound 1135], the concentration for a half-maximal effect (EC50) is less than 50 nM. For `Cc1c(CNC(=O)C2CC(C(=O)Nc3ccc(F)c(Cl)c3)N(C)S(=O)(=O)N2)cnn1C` (single isomer, unassigned) [Compound 740-ISOMER-A, N3-(3-chloro-4-fluoro-phenyl)-N5-[(1,5-dimethylpyrazol-4-yl)methyl]-2-methyl-1,1-dioxo-1,2,6-thiadiazinane-3,5-dicarboxamide], the concentration giving a half-maximal response (EC50) is less than 50 nM.
